In patent publication US11412737B2, “Mixtures of beflubutamid or optically enriched forms thereof with a second herbicide” (FMC Corporation, priority 2016, dated 2022):
“And” between values parts separate entries of the source, which are not always exact repeats. Equal entries are not always repeated.

What was measured:
Velvetleaf (ABUTH) = test: pre-emergence test, weed control; assay type: in vivo, Abutilon theophrasti; details: pre-emergent, 21 DAT, rate g ai/ha by row: r4 94, r5 125, r6 250, r7 125, r8 250, r9 500, r10 94+125, r11 125+125, r12 94+250, r13 125+250, r14 94+500, r15 125+500
Method: (§1) Test compositions containing the test compounds were diluted with water to provide the appropriate test rate concentrations.
(§2) For pre-emergence testing, four disposable fiber flats (6 inch by 10 inch) for each rate of application of each herbicide solution were filled with top soil, to which seeds of each species were planted in furrows made by a template pressed on the top of the soil. The furrows were covered with soil after planting the seed and were watered well before application of the test compounds.
(§3) Fiber flats designated for treatment were placed in a spray chamber having a static platform and a movable sprayer and the height of the spray nozzle was 10.5 inches above the soil level. Once the sprayer was calibrated using water for spray volume of 30 gallons per acre, flats were sprayed with sprayer at a speed to receive a coverage equivalent of 30 gallons per acre. The application rates are those shown in the Tables below for the individual herbicidal solutions and the herbicide compositions of this invention. The pre-emergence flats were immediately placed in the greenhouse and watered lightly after treatment. Thereafter they were regularly watered and fertilized for the duration of the test.
(§4) The control of weeds was evaluated in each experimental test at 21 for wheat and 28 days after treatment (DAT) for all species. Data were analyzed using Minitab software at 95% confidence interval. The results, shown as an average of the replications, were compared with results observed in untreated control flats in the same tests. Percent control was determined by a method similar to the 0 to 100 rating system disclosed in “Research Methods in Weed Science,” 2nd ed., B. Truelove, Ed.; Southern Weed Science Society; Auburn University, Auburn, Ala., 1977. The rating system is as follows in Table 1.

Common chickweed (STEME) [1] = test: post-emergence test, weed control; assay type: in vivo, Stellaria media; details: post-emergent, 28 DAT
Method: as §1
(§5) For post-emergence testing, seeds of each species for each rate of application of each herbicide solution were planted in 7.5 cm×7.5 cm plastic pots filled with potting soil. The seeds were germinated and the resulting plants were allowed to grow in a greenhouse until they reached a growth stage, such as height, suitable for testing. […] Pots of post-emergent treated plants were returned to the greenhouse and not watered for 24 hours after treatment. Thereafter they were regularly watered and fertilized for the duration of the test.
(§6) The control of weeds was evaluated in each experimental test at 21 for wheat and 28 days after treatment (DAT) for all species. […] The rating system is as follows in Table 1.

Rice flatsedge (CYPIR) = test: pre-emergence test, weed control; assay type: in vivo; details: pre-emergent, 28 DAT; rate g ai/ha by row: r5 94, r6 125, r7 250, r8 3.28, r9 6.56, r10 13.1, r11 94+3.28, r12 94+6.56, r13 94+13.1, r14 125+3.28, r15 125+6.56, r16 125+13.1
Method in brief: (§7)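 Seeds sown in top-soil flats and watered, then sprayed pre-emergence at 30 gallons per acre from a nozzle 10.5 inches above soil; flats kept in the greenhouse with regular watering and fertilizing. Percent control (0–100 scale versus untreated flats) scored at 21 DAT for wheat and 28 DAT for all species, averaged over replicates.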

Common chickweed (STEME) [2] = test: pre-emergence test, weed control; assay type: in vivo, Stellaria media; details: pre-emergent, 28 DAT; BFL at 187.5 g, PYX at 90 g, combination of both
Method: as §1, §2
Fiber flats designated for treatment were placed in a spray chamber having a static platform and a movable sprayer and the height of the spray nozzle was 10.5 inches above the soil level. Once the sprayer was calibrated using water for spray volume of 30 gallons per acre, flats were sprayed with sprayer at a speed to receive a coverage equivalent of 30 gallons per acre. […]
The control of weeds was evaluated in each experimental test at 21 for wheat and 28 days after treatment (DAT) for all species. Data were analyzed using Minitab software at 95% confidence interval. […] Percent control was determined by a method similar to the 0 to 100 rating system disclosed in “Research Methods in Weed Science,” 2nd ed., B. Truelove, Ed.; Southern Weed Science Society; Auburn University, Auburn, Ala., 1977. […]

Barley (B) = test: post-emergence test, crop injury; assay type: in vivo; details: post-emergent, 28 DAT, BFL racemic, height at application 14 cm; rate g ai/ha by row: r7 94, r8 125, r9 188, r10 125, r11 250, r12 94+125, r13 125+125, r14 188+125, r15 94+250, r16 125+250, r17 188+250
Method: as §1, §5, §6

redroot pigweed (AMARE) = test: post-emergence test, weed control; assay type: in vivo; details: post-emergent, 28 DAT, COC 1%, rate g ai/ha by row: r5 94, r6 125, r7 250, r8 1.25, r9 2.5, r10 5, r11 94+1.25, r13 125+1.25, r15 94+2.5, r17 125+2.5, r19 94+5, r21 125+5
Method: as §1, §5, §6

Jimsonweed (DATST) = test: pre-emergence test, weed control; assay type: in vivo, Datura stramonium; details: pre-emergent, 28 DAT, combination of both
Method: as §1, §2, §3, §4

beggerticks (BIDPI) = test: post-emergence test, weed control; assay type: in vivo, Bidens pilosa; details: post-emergent, 28 DAT, COC 1%, rate g ai/ha by row: r5 94, r6 125, r7 250, r8 1.25, r9 2.5, r10 5, r11 94+1.25, r13 125+1.25, r15 94+2.5, r17 125+2.5, r19 94+5, r21 125+5
Method: as §1, §5, §6

Blackgrass (ALOMY) = test: pre-emergence test, weed control; assay type: in vivo; details: pre-emergent, 28 DAT
Method in brief: as §7

| Compound | percentage of weed control, Velvetleaf ABUTH (Velvetleaf (ABUTH); 94 g ai/ha) [%] | percentage of weed control, Velvetleaf ABUTH (Velvetleaf (ABUTH); 125 g ai/ha) [%] | percentage of weed control, Velvetleaf ABUTH (Velvetleaf (ABUTH); 250 g ai/ha) [%] | percentage of weed control, Common chickweed STEME (Common chickweed (STEME) [1]; COC 1%, rate g ai/ha by row: r5 94, r6 125, r7 250, r8 1.25, r9 2.5, r10 5, r11 94+1.25, r13 125+1.25, r15 94+2.5, r17 125+2.5, r19 94+5, r21 125+5) [%] | control of common chickweed (Common chickweed (STEME) [1]; BFL at 187.5 g, PYX at 45 g, combination of both) [%] | percentage of weed control, Rice flatsedge CYPIR (Rice flatsedge (CYPIR)) | control of common chickweed (Common chickweed (STEME) [2]) [%] | percentage of crop injury, B (Barley (B)) [%] | percentage of weed control, Redroot pigweed AMARE (redroot pigweed (AMARE); BFL at 94 g ai/ha) [%] | percentage of weed control, Redroot pigweed AMARE (redroot pigweed (AMARE); BFL at 125 g ai/ha) [%] | percentage of weed control, Redroot pigweed AMARE (redroot pigweed (AMARE); BFL at 250 g ai/ha) [%] | control of jimsonweed (Jimsonweed (DATST); BFL at 62.5 g, PTX at 90 g) [%] | control of jimsonweed (Jimsonweed (DATST); BFL at 187.5 g, PYX at 90 g) [%] | percentage of weed control, Beggerticks BIDPI (beggerticks (BIDPI); BFL at 94 g ai/ha) [%] | percentage of weed control, Beggerticks BIDPI (beggerticks (BIDPI); BFL at 125 g ai/ha) [%] | percentage of weed control, ALOMY (Blackgrass (ALOMY); (+)-BFL >95% e.e., rate g ai/ha by row: r6 62.5, r7 125, r8 62.5, r9 125, r10 222, r11 445, r12 22.5, r13 45, r14 62.5+62.5, r15 125+62.5, r16 62.5+125, r17 125+125, r18 62.5+222, r19 125+222, r20 62.5+445, r21 125+445, r22 62.5+22.5, r23 125+22.5, r24 62.5+45, r25 125+45, 62.5 g ai/ha) [%] | percentage of weed control, ALOMY (Blackgrass (ALOMY); (+)-BFL >95% e.e., rate g ai/ha by row: r6 62.5, r7 125, r8 62.5, r9 125, r10 222, r11 445, r12 22.5, r13 45, r14 62.5+62.5, r15 125+62.5, r16 62.5+125, r17 125+125, r18 62.5+222, r19 125+222, r20 62.5+445, r21 125+445, r22 62.5+22.5, r23 125+22.5, r24 62.5+45, r25 125+45, 125 g ai/ha) [%] | percentage of weed control, ALOMY (Blackgrass (ALOMY); (−)-BFL >95% e.e., rate g ai/ha by row: r6 62, r7 125, r8 125, r9 250, r10 445, r11 890, r12 45, r13 90, r14 62+125, r15 125+125, r16 62+250, r17 125+250, r18 62+445, r19 125+445, r20 62+890, r21 125+890, r22 62+45, r23 125+45, r24 62+90, r25 125+90, 125 g ai/ha) [%] | percentage of weed control, ALOMY (Blackgrass (ALOMY); (−)-BFL >95% e.e., rate g ai/ha by row: r6 62, r7 125, r8 125, r9 250, r10 445, r11 890, r12 45, r13 90, r14 62+125, r15 125+125, r16 62+250, r17 125+250, r18 62+445, r19 125+445, r20 62+890, r21 125+890, r22 62+45, r23 125+45, r24 62+90, r25 125+90, 250 g ai/ha) [%] |
| --- | --- | --- | --- | --- | --- | --- | --- | --- | --- | --- | --- | --- | --- | --- | --- | --- | --- | --- | --- |
| CCC(Oc1ccc(F)c(C(F)(F)F)c1)C(=O)NCc1ccccc1 (racemic) [BFL, 2-[4-fluoro-3-(trifluoromethyl)phenoxy]-N-(phenylmethyl)butanamide] | 10 | 15 | 14 | 5 | 16 | 71% and 88% and 100% | 6 | 1 | 61 | 60 | 86 | 4 | 30 | 5 | 10 | – | – | – | – |
| CC1(C)CON(Cc2ccc(Cl)cc2Cl)C1=O [DCI, 2-(2,4-dichlorophenyl)methyl-4,4-dimethyl-3-isoxazolidinone] | – | – | – | – | – | – | – | – | – | – | – | – | – | – | – | 65 | 64 | 98 | 99 |
